What all share (assay): NCI-60 cell line screen, 48 h
Assay [1] deals with OVCAR-3 ovarian.
For assay [2], the system named is M14 melanoma.
Assay [3] deals with MOLT-4 leukemia.
Assay [4] concerns PC-3 prostate.
The subject of assay [5] is SNB-75 CNS.
Assay [6] concerns MALME-3M melanoma.
Assay [7] has as its system MDA-MB-231 breast.
Assay [8] has as its system EKVX NSCLC.
The test system of assay [9] is CAKI-1 renal.
The subject of assay [10] is UACC-62 melanoma.

“And” between values parts separate entries of the source, which are not always exact repeats. Identical values can stand only once.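 Protocol summary: plate cells (96-well), add compound at 5 concentrations, incubate 48 h, interpolate endpoints linearly. GI50 marks 50% less growth. TGI is the concentration that stops growth completely.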 A value given as a limit tells only on which side of the number the result lay.

On to `CC(=O)N1CCN(C2=Nc3ccccc3CO2)C1=S`, for which the GI50 is 51.6 µM in assay [1]; 51.3 µM in [2]; 41.9 µM in assay [3]; 87.6 µM in assay [4]; 40.1 µM in [5]; 26 µM in [6]. Moreover, the GI50 in [7] was over 100 µM; in assay [8] it was 45.1 µM; in assay [9], over 100 µM; in assay [10], 83 µM. In addition, the TGI in [1] is over 100 µM; in assay [2], over 100 µM; in assay [3], over 100 µM; in assay [4], over 100 µM; in assay [5] it was over 100 µM; in assay [6], 89 µM. Also, the TGI in assay [7], in assay [8], in assay [9] and in [10] was over 100 µM each time.
In the case of `CC(C)[C@](O)(c1ccc2cc(OC(F)F)c(OC(F)F)cc2c1)c1cn[nH]n1`, the GI50 was 18.7 µM and 14 µM in [1]; 18.5 µM and 15.4 µM in [2]; 30.1 µM and 17.1 µM in assay [3]; 17.5 µM and 14.2 µM in assay [4]; 11.8 µM and 9.7 µM in assay [5]; 18.4 µM and 21 µM in assay [6]. Further, the GI50 is 20.5 µM and 12.3 µM in [7]; 14 µM and 13.6 µM in assay [8]; 13 µM and 10.2 µM in assay [9]; 20.1 µM and 13 µM in assay [10]. The TGI is 36.6 µM and 29.1 µM in assay [1]; 42.2 µM and 32.6 µM in assay [2]; 82.7 µM and 62 µM in [3]; 35.4 µM and 33.4 µM in [4]; 36.1 µM and 27.1 µM in assay [5]; 42.6 µM and 44.7 µM in [6]. The TGI in assay [7] is 38.9 µM and 28.6 µM; in [8], 44.8 µM and 39.9 µM; in assay [9], 37 µM and 34.5 µM; in [10], 39.6 µM and 29.8 µM.
`COc1ccc2c(c1)C(=O)c1c-2n(CCCN)c(=O)c2ccccc12`: the GI50 in assay [1] is 0.0957 µM; in assay [2], 0.0951 µM; in assay [3], under 0.01 µM; in assay [4] it was 0.206 µM; in assay [5], 0.0151 µM; in assay [6] it was 0.031 µM. The GI50 in assay [7] is 0.0704 µM; in [8] it was 0.196 µM; in assay [9] it was under 0.0468 µM; in assay [10], 0.166 µM. Further, the TGI in assay [1] was 0.798 µM; in assay [2], 1.53 µM; in [3], under 0.0243 µM; in assay [4], 1.26 µM; in [5], 1.54 µM; in assay [6] it was 0.352 µM. In addition, the TGI in [7] was found to be 0.24 µM; in assay [8], 1.83 µM; in assay [9], 0.251 µM; in [10], 1.21 µM.
For the compound `COc1ccc(C#Cc2ccccc2C#CCCCCO)cc1`, the GI50 is 20.4 µM in assay [1]; 19.4 µM in assay [2]; 18.3 µM in assay [3]; 21.9 µM in [4]; 18.4 µM in assay [5]; 23 µM in [6]. In addition, the GI50 in assay [7] was 17.3 µM; in [8], 23.6 µM; in assay [9], 22.3 µM; in assay [10], 15.9 µM. In addition, the TGI in [1] is 40.2 µM; in [2] it was 36.2 µM; in assay [3] it was 39.2 µM; in assay [4], 42.6 µM; in assay [5], 38.9 µM; in assay [6], 45.4 µM. Moreover, the TGI was found to be 32.2 µM in assay [7], 54 µM in [8], 40.3 µM in assay [9] and 29.8 µM in assay [10].
For `Cc1nc2sccn2c1/C=C1/C(=O)Nc2ccccc21`, the GI50 in [1] was 2.36 µM; in [2], 3.71 µM; in assay [3], 4.83 µM; in assay [4], 12.3 µM; in [5], 17.7 µM; in assay [6] it was 5.37 µM. Further, the GI50 in assay [7] was 4.53 µM; in assay [8], 27.6 µM; in [9], 2.98 µM; in [10] it was 2.52 µM. Also, the TGI was over 22.8 µM in [1]; over 100 µM in assay [2]; over 31.6 µM in assay [3]; over 100 µM in [4]; over 74.2 µM in assay [5]; over 100 µM in [6]. The TGI is over 82.5 µM in assay [7], over 100 µM in assay [8], over 100 µM in assay [9] and 21.2 µM in assay [10].
On to `C=C(Cn1c(=O)c2ccccc2c2ccccc21)c1ccc(C(=O)Nc2ccccc2N)cc1`, for which the GI50 in [1] is 33.7 µM; in assay [2] it was over 19.8 µM; in assay [3], 0.0415 µM; in [4], 4.37 µM; in assay [5], 4.41 µM; in assay [6] it was 5.19 µM. Also, the GI50 in assay [7] is 1.75 µM; in assay [8] it was over 59.8 µM; in [9], 23.3 µM; in [10], 24.1 µM. Also, the TGI in [1] was over 100 µM; in assay [2], over 100 µM; in [3], 0.196 µM; in assay [4], over 79.4 µM; in assay [5], over 94.4 µM; in assay [6], over 92.8 µM. Also, the TGI in [7] was over 27.8 µM; in assay [8] it was over 100 µM; in [9], over 100 µM; in assay [10], over 100 µM.
With `COc1ccc(-c2[nH]ncc2-c2cc3c(c(OC)c2)OCC(=O)N3)cc1`, the GI50 in assay [1] is 0.36 µM; in [2], 0.384 µM; in assay [3], 0.528 µM; in [4], 0.538 µM; in assay [5], 0.196 µM; in assay [6], 2.75 µM. The GI50 in assay [7] is 1.21 µM; in [8], 0.675 µM; in [9], 0.556 µM; in assay [10] it was 0.621 µM. Further, the TGI in [1] is 49 µM; in assay [2], over 89.2 µM; in [3], over 34.6 µM; in assay [4], over 100 µM; in [5], 0.797 µM; in assay [6] it was 99.1 µM. In addition, the TGI in assay [7] is over 100 µM; in assay [8], over 33.7 µM; in assay [9], over 63.3 µM; in [10] it was 20.8 µM.
With `O=[As](O)(O)c1ccc(NCc2ccccc2)cc1`, the TGI in [1], in assay [2], in assay [3], in assay [4], in assay [5] and in assay [6] was over 100 µM in each case. Moreover, the TGI in assay [7], in [8], in assay [9] and in [10] was over 100 µM each time.

For the origin of these results see PubChem BioAssay (NCI).
